Measurements published in ChEMBL document CHEMBL1201862, “PubChem BioAssay data set” (2004).
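1) Cells in 96-well plates. 2) Compound, 48 h, 5 concentrations. 3) Linear interpolation between surrounding doses. 4) Unreached endpoint = highest concentration. At the GI50, growth is halved.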 Active and inactive are the calls of the source. Cut-off read from the data, not from the text of the source: active = GI50 up to about 1.1 µM and inactive = higher.

Tests used:
Assay in all cases: inhibition of tumour cell growth, NCI panel, 48 h
SF-539 = system: SF-539
EKVX = system: EKVX
UACC-257 = system: UACC-257
ACHN = system: ACHN
U-251 = system: U-251
HOP-92 = system: HOP-92
CAKI-1 = system: CAKI-1
M14 = system: M14
LOX IMVI = system: LOX IMVI
HOP-62 = system: HOP-62
A549 = system: A549
OVCAR-3 = system: OVCAR-3
MDA-N = system: MDA-N
SR = system: SR
MDA-MB-435 = system: MDA-MB-435
SK-MEL-28 = system: SK-MEL-28
MOLT-4 = system: MOLT-4
HCC 2998 = system: HCC 2998
COLO 205 = system: COLO 205
SNB-19 = system: SNB-19
SK-OV-3 = system: SK-OV-3
SNB-75 = system: SNB-75
KM12 = system: KM12
SW-620 = system: SW-620
786-0 = system: 786-0
DU-145 = system: DU-145
OVCAR-8 = system: OVCAR-8
NCI-H460 = system: NCI-H460
UO-31 = system: UO-31
BT-549 = system: BT-549
HCT-15 = system: HCT-15
RPMI-8226 = system: RPMI-8226
IGROV-1 = system: IGROV-1
SK-MEL-2 = system: SK-MEL-2
NCI/ADR-RES = system: NCI/ADR-RES
OVCAR-5 = system: OVCAR-5
SK-MEL-5 = system: SK-MEL-5
NCI-H226 = system: NCI-H226
SN12C = system: SN12C
T47D = system: T47D
MCF7 = system: MCF7
UACC-62 = system: UACC-62
NCI-H23 = system: NCI-H23
K562 = system: K562
HT-29 = system: HT-29
HCT-116 = system: HCT-116
PC-3 = system: PC-3
SF-295 = system: SF-295
CCRF-CEM = system: CCRF-CEM
Malme-3M = system: Malme-3M
NCI-H522 = system: NCI-H522
SF-268 = system: SF-268
TK-10 = system: TK-10
A498 = system: A498
HL-60 = system: HL-60
MDA-MB-231 = system: MDA-MB-231
Hs-578T = system: Hs-578T
RXF 393 = system: RXF 393
OVCAR-4 = system: OVCAR-4

Measured: GI50

N#C/C(C(=O)Nc1ccccc1)=C(/N)N1CCCCC1
inactive: SF-539 > 100 µM | EKVX 98.4 µM | UACC-257 > 100 µM | ACHN > 100 µM | U-251 > 100 µM | HOP-92 > 100 µM | CAKI-1 > 100 µM | M14 91 µM | LOX IMVI > 100 µM | HOP-62 > 100 µM | A549 > 100 µM | OVCAR-3 > 100 µM | MDA-N > 100 µM | SR > 100 µM | MDA-MB-435 84.9 µM | SK-MEL-28 > 100 µM | MOLT-4 > 100 µM | HCC 2998 > 100 µM | COLO 205 > 100 µM | SNB-19 > 100 µM | SK-OV-3 > 100 µM | SNB-75 > 100 µM | KM12 > 100 µM | SW-620 > 100 µM | 786-0 > 100 µM | DU-145 > 100 µM | OVCAR-8 > 100 µM | NCI-H460 > 100 µM | UO-31 67.3 µM | BT-549 > 100 µM | RPMI-8226 > 100 µM | IGROV-1 91 µM | SK-MEL-2 > 100 µM | NCI/ADR-RES > 100 µM | OVCAR-5 > 100 µM | SK-MEL-5 > 100 µM | NCI-H226 > 100 µM | SN12C > 100 µM | T47D > 100 µM | MCF7 > 100 µM | UACC-62 95.7 µM | NCI-H23 > 100 µM | K562 > 100 µM | HT-29 > 100 µM | HCT-116 > 100 µM | PC-3 > 100 µM | SF-295 > 100 µM | CCRF-CEM > 100 µM
> 100 µM: HCT-15

O=Cc1c(C(=O)O)[nH]c(=O)[nH]c1=O
inactive: SF-539 > 100 µM | EKVX > 100 µM | UACC-257 > 100 µM | ACHN > 100 µM | U-251 > 100 µM | CAKI-1 > 100 µM | M14 > 100 µM | LOX IMVI > 100 µM | A549 > 100 µM | Malme-3M > 100 µM | OVCAR-3 > 100 µM | MDA-N > 100 µM | SR > 10 µM | MDA-MB-435 > 100 µM | SK-MEL-28 > 100 µM | NCI-H522 58.3 µM | MOLT-4 > 100 µM | COLO 205 > 100 µM | SNB-19 > 100 µM | SK-OV-3 > 100 µM | SNB-75 > 100 µM | SF-268 > 100 µM | KM12 > 100 µM | SW-620 > 100 µM | 786-0 > 100 µM | DU-145 > 100 µM | OVCAR-8 > 100 µM | TK-10 > 100 µM | NCI-H460 > 100 µM | UO-31 > 100 µM | BT-549 > 100 µM | RPMI-8226 > 100 µM | A498 > 100 µM | IGROV-1 > 100 µM | SK-MEL-2 > 100 µM | HL-60 > 100 µM | NCI/ADR-RES > 100 µM | OVCAR-5 39.8 µM | MDA-MB-231 > 100 µM | SK-MEL-5 98.6 µM | NCI-H226 > 100 µM | SN12C > 100 µM | UACC-62 > 100 µM | NCI-H23 > 100 µM | Hs-578T > 100 µM | K562 > 100 µM | HT-29 > 100 µM | HCT-116 > 100 µM | PC-3 > 100 µM | SF-295 > 100 µM | CCRF-CEM > 100 µM | RXF 393 > 100 µM
> 100 µM: HCT-15

c1ccc2c(c1)CC1=C(O2)c2ccccc2OC1
inactive: SF-539 26.3 µM | EKVX 16.1 µM | UACC-257 28.2 µM | ACHN 34.2 µM | U-251 22.3 µM | HOP-92 21.2 µM | CAKI-1 23.1 µM | M14 38.2 µM | LOX IMVI 17.9 µM | HOP-62 74.5 µM | A549 47.3 µM | Malme-3M 52.6 µM | OVCAR-3 21.3 µM | MDA-N 19.1 µM | SR 20.4 µM | MDA-MB-435 27.3 µM | NCI-H522 19.5 µM | MOLT-4 23.9 µM | HCC 2998 21.8 µM | COLO 205 18.9 µM | SK-OV-3 > 100 µM | OVCAR-4 21.1 µM | SF-268 29.4 µM | KM12 29.1 µM | SW-620 19.8 µM | 786-0 16.6 µM | DU-145 35.9 µM | OVCAR-8 35.7 µM | TK-10 33.2 µM | UO-31 41.2 µM | BT-549 25.1 µM | RPMI-8226 21.8 µM | A498 61.1 µM | IGROV-1 23.1 µM | SK-MEL-2 23.5 µM | NCI/ADR-RES 36.6 µM | OVCAR-5 > 100 µM | MDA-MB-231 31.8 µM | SK-MEL-5 22.4 µM | NCI-H226 50.2 µM | SN12C 19.6 µM | T47D 17 µM | MCF7 > 100 µM | UACC-62 26.2 µM | NCI-H23 40.9 µM | HT-29 31.6 µM | HCT-116 16.4 µM | PC-3 38.2 µM | SF-295 39.1 µM | CCRF-CEM 32.7 µM
25.8 µM: HCT-15
